By IC50 is commonly meant the point on the concentration scale where inhibition reaches its midpoint.

Structures are written as SMILES.

One assay concerns the target T1, human C5a receptor (CD88) (Homo sapiens, UniProt P21730).
T1 construct: expressed in transfected cells; host or cells: rat basophilic leukemia (RBL) cells, stably transfected
T1 sequence (P21730 1-350): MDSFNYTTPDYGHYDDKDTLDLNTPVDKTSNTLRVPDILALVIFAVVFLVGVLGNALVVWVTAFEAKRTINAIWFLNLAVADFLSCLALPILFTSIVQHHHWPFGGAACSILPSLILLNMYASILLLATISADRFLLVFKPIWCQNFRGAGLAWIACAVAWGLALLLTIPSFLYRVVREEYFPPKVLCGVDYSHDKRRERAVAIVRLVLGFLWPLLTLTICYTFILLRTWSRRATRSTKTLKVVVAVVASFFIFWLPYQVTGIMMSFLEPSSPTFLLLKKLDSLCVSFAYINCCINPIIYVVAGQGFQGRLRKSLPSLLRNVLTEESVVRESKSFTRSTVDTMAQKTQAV
In words: C5a induced enzyme (glucosaminidase) release assay in RBL cells expressing the human C5a receptor (Example 28). The class given is cell-based. The note with it: RBL cells with human C5aR; read-out: IC50 for the inhibition of C5a induced enzyme release. The method, boiled down:
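Rat basophilic leukemia (RBL) cells expressing human C5a receptor, at 2×10^6 cells/ml, primed with cytochalasin B, then incubated with test compound 10 min at 37 °C.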
As to `CCc1c(N)cc(Cl)c(CC)c1NC(=O)N(c1ccc(NC)cc1)[C@@H](C)c1ccc(Cl)cc1`, the half-maximal inhibitory concentration (IC50) is 3 nM.

`CCc1c(N)cc(Cl)c(CC)c1NC(=O)N(c1ccc(C(C)C)cc1)[C@@H](C)c1ccc(C)cc1` [compound 73, (S)-3-(3-amino-5-chloro-2,6-diethyl-phenyl)-1-(4-isopropyl-phenyl)-1-(1-p-tolyl-ethyl)-urea]: the IC50 worked out at 32 nM.

With `CCc1c(N)cc(Cl)c(CC)c1NC(=O)N(Cc1ccc(C)nc1)c1ccc(OC)c2ccccc12`, the IC50 is 55 nM.

Consider `CCc1ccc(N(Cc2ccc(Cl)cc2)C(=O)Nc2c(CC)c(N)cc(Cl)c2CC)cc1`, for which the half-inhibitory concentration (IC50) worked out at 86 nM.

With `CCc1c(N)cc(Cl)c(CC)c1NC(=O)N(Cc1ccc(Cl)cc1)c1ccc(NC)cc1`, the half-inhibitory concentration (IC50) is 19 nM.

In the case of `CCc1ccc(N(C(=O)Nc2c(CC)c(N)cc(Cl)c2CC)[C@@H](C)c2ccc(Cl)cc2)cc1F`, the IC50 is 35 nM.

In the case of `CCc1c(N)cc(Cl)c(CC)c1NC(=O)N(c1ccc(C(C)C)cc1)[C@@H](C)c1ccc(F)cc1` [compound 81, (S)-3-(3-amino-5-chloro-2,6-diethyl-phenyl)-1-[1-(4-fluor-phenyl)-ethyl]-1-(4-isopropyl-phenyl)-urea], the IC50 is 38 nM.

Regarding `CCc1cccc(CC)c1NC(=O)N(Cc1ccc(OC)cc1)c1ccc(C(C)C)cc1` [compound 26, 3-(2,6-diethyl-phenyl)-1-(4-isopropyl-phenyl)-1-(4-methoxy-benzyl)-urea], the half-maximal inhibitory concentration (IC50) worked out at 524 nM.

The assay is the same for the next values; noted with them: inhibition of C5a induced enzyme release, RBL cells with human C5aR; read-out: Activity-range (antagonistic activity, IC50 enzyme release).
For the compound `CCc1c(N)cc(Cl)c(CC)c1NC(=O)N(c1ccc(OC)cc1CO)[C@@H](C)c1ccc(Cl)cc1` [compound 109, (S)-3-(3-amino-5-chloro-2,6-diethyl-phenyl)-1-[1-(4-chloro-phenyl)-ethyl]-1-(2-hydroxymethyl-4-methoxy-phenyl)-urea], the IC50 fell in the range of 200 to 5000 nM.

`CCc1ccc(N)c(CC)c1NC(=O)N(Cc1ccc(C(F)(F)F)cc1)c1ccc(C(C)C)cc1` [compound 50, 3-(3-amino-2,6-diethyl-phenyl)-1-(4-isopropyl-phenyl)-1-(4-trifluoromethyl-benzyl)-urea]: the IC50 was in the range of 200 to 5000 nM.

Regarding `CCc1ccc(N(C(=O)Nc2c(C(C)(C)C)ccc(N)c2C)[C@@H](C)c2ccc(Cl)cc2)cc1` [compound 111, (S)-3-(3-amino-6-tert-butyl-2-methyl-phenyl)-1-[1-(4-chloro-phenyl)-ethyl]-1-(4-ethyl-phenyl)-urea], the 50% inhibitory concentration (IC50) fell in the range of 200 to 5000 nM.

Turning to `CCc1ccc(N(Cc2ccc(OC)cc2)C(=O)Nc2c(CC)c(N)cc(Cl)c2CC)cc1` [compound 32, 3-(3-amino-5-chloro-2,6-diethyl-phenyl)-1-(4-ethyl-phenyl)-1-(4-methoxy-benzyl)-urea], the IC50 was in the range of 200 to 5000 nM.

On to `CCc1c(N)cc(Cl)c(CC)c1NC(=O)N(c1ccc(C(C)C)cc1)[C@H](C)c1ccc(C)cc1` [compound 57, (R)-3-(3-Amino-5-chloro-2,6-diethyl-phenyl)-1-(4-isopropyl-phenyl)-1-(1-p-tolyl-ethyl)-urea], for which the IC50 is 200 to 5000 nM.

As for `CCc1c(N)cc(Cl)c(CC)c1NC(=O)N(c1ccc2[nH]ccc2c1)[C@@H](C)c1ccc(Cl)cc1` [compound 141, (S)-3-(3-amino-5-chloro-2,6-diethyl-phenyl)-1-[1-(4-chloro-phenyl)-ethyl]-1-(1H-indol-5-yl)-urea], the IC50 is under 60 nM.

In the case of `CCc1c(N)cc(Cl)c(CC)c1NC(=O)N(Cc1ccc(C)nc1)c1ccc(C(C)C)cc1` [compound 76, 3-(3-amino-5-chloro-2,6-diethyl-phenyl)-1-(4-isopropyl-phenyl)-1-(6-methyl-pyridin-3-ylmethyl)-urea], the IC50 fell in the range of 60 to 200 nM.

As for `CCc1c(N)cc(Cl)c(CC)c1NC(=O)N(c1ccc(C(C)C)cc1)C1CCSc2ccccc21` (stereo not shown) [compound 101, 3-(3-amino-5-chloro-2,6-diethyl-phenyl)-1-(4-isopropyl-phenyl)-1-thiochroman-4-yl-urea], the half-maximal inhibitory concentration (IC50) lay within 200 to 5000 nM.

For the compound `CCc1c(N)cc(Cl)c(CC)c1NC(=O)N(Cc1cccnc1)c1ccc(C(C)C)cc1` [compound 74, 3-(3-amino-5-chloro-2,6-diethyl-phenyl)-1-(4-isopropyl-phenyl)-1-pyridin-3-ylmethyl-urea], the half-maximal inhibitory concentration (IC50) was in the range of 200 to 5000 nM.

`CCc1ccc(NCC(=O)OC)c(CC)c1NC(=O)N(Cc1ccc(OC)cc1)c1ccc(C(C)C)cc1` [compound 30, {2,4-diethyl-3-[3-(4-isopropyl-phenyl)-3-(4-methoxy-benzyl)-ureido]-phenylamino}-acetic acid methyl ester]: the IC50 lay within 200 to 5000 nM.

For `CCc1c(N)cc(Cl)c(CC)c1NC(=O)N(c1ccc(C(C)C)cc1)C1CCOc2ccccc21` (stereo not shown) [compound 89, 3-(3-amino-5-chloro-2,6-diethyl-phenyl)-1-chroman-4-yl-1-(4-isopropyl-phenyl)-urea], the IC50 is 200 to 5000 nM.

For the compound `CCc1ccc(N)c(CC)c1NC(=O)N(c1ccc(C(C)C)cc1)C1CCc2ccccc21` (stereo not shown) [compound 90, 3-(3-amino-2,6-diethyl-phenyl)-1-indane-1-yl-1-(4-isopropyl-phenyl)-urea], the concentration for half-maximal inhibition (IC50) lay within 200 to 5000 nM.

For the compound `CCc1ccc(N(Cc2ccc(-n3cccn3)cc2)C(=O)Nc2c(CC)c(N)cc(Cl)c2CC)cc1` [compound 110, 3-(3-amino-5-chloro-2,6-diethyl-phenyl)-1-(4-ethyl-phenyl)-1-(4-pyrazol-1-yl-benzyl)-urea], the IC50 is 200 to 5000 nM.

As for `CCc1ccc(N)c(CC)c1NC(=O)N(CCc1ccccc1)c1ccc(C(C)C)cc1` [compound 51, 3-(3-amino-2,6-diethyl-phenyl)-1-(4-isopropyl-phenyl)-1-phenethyl-urea], the IC50 lay within 200 to 5000 nM.

As for `CCc1c(Cl)cc(NCC(N)=O)c(CC)c1NC(=O)N(Cc1ccc(OC)cc1)c1ccc(C(C)C)cc1` [compound 46, 2-{5-chloro-2,4-diethyl-3-[3-(4-isopropyl-phenyl)-3-(4-methoxy-benzyl)-ureido]-phenylamino}-acetamide], the IC50 lay in the range of 200 to 5000 nM.

Consider `CCc1c(N)cc(Cl)c(CC)c1NC(=O)N(Cc1ccc(C(F)(F)F)cc1)c1ccc(C(C)C)cc1` [compound 49, 3-(3-amino-5-chloro-2,6-diethyl-phenyl)-1-(4-isopropyl-phenyl)-1-(4-trifluormethyl-benzyl)-urea], for which the 50% inhibitory concentration (IC50) lay in the range of 200 to 5000 nM.

Regarding `CCc1c(N)cc(Cl)c(CC)c1NC(=O)N(Cc1ccc(OC)nc1)c1ccc(C(C)C)cc1` [compound 47, 3-(3-amino-5-chloro-2,6-diethyl-phenyl)-1-(4-isopropyl-phenyl)-1-(6-methoxy-pyridin-3-ylmethyl)-urea], the IC50 was 200 to 5000 nM.

Turning to `CCc1ccc(N(Cc2ccc(C)cc2)C(=O)Nc2c(CC)ccc(N)c2CC)cc1` [compound 54, 3-(3-amino-2,6-diethyl-phenyl)-1-(4-ethyl-phenyl)-1-(4-methyl-benzyl)-urea], the IC50 lay within 200 to 5000 nM.

Consider `CCc1c(N)cc(Cl)c(CC)c1NC(=O)N(c1ccc(C(C)C)cc1)C1CCc2ccccc21` (stereo not shown) [compound 84, 3-(3-amino-5-chloro-2,6-diethyl-phenyl)-1-indane-1-yl-1-(4-isopropyl-phenyl)-urea], for which the IC50 is 200 to 5000 nM.

`CCc1c(N)cc(Cl)c(CC)c1NC(=O)N(c1ccc(Cl)cc1)[C@@H](C)c1ccc(Cl)cc1` [compound 86, (S)-3-(3-amino-5-chloro-2,6-diethyl-phenyl)-1-(4-chlor-phenyl)-1-[1-(4-chloro-phenyl)-ethyl]-urea]: the IC50 was in the range of 200 to 5000 nM.

Source of the values: patent US8071810B2, “C5a receptor antagonists” (Jerini AG, priority 2005, dated 2011).
